Test results: US5514694A, “Peptidyl ketoamides” (Georgia Tech Research Corp, priority 1993, dated 1996)
Read-outs that look alike come from different tables or passages of the source.

Legend:
Assay type in all cases: biochemical
[1] = molecular target: T1, Calpain I from human erythrocytes (Homo sapiens, UniProt P07384); experiment: Calpain I inhibition, Suc-Leu-Tyr-AMC hydrolysis (KI); details: for Ki: read-out: KI Cal I
T1 construct: Calpain I was purified from human erythrocytes; from tissue; host or cells: human erythrocytes
T1 sequence (P07384 1-714): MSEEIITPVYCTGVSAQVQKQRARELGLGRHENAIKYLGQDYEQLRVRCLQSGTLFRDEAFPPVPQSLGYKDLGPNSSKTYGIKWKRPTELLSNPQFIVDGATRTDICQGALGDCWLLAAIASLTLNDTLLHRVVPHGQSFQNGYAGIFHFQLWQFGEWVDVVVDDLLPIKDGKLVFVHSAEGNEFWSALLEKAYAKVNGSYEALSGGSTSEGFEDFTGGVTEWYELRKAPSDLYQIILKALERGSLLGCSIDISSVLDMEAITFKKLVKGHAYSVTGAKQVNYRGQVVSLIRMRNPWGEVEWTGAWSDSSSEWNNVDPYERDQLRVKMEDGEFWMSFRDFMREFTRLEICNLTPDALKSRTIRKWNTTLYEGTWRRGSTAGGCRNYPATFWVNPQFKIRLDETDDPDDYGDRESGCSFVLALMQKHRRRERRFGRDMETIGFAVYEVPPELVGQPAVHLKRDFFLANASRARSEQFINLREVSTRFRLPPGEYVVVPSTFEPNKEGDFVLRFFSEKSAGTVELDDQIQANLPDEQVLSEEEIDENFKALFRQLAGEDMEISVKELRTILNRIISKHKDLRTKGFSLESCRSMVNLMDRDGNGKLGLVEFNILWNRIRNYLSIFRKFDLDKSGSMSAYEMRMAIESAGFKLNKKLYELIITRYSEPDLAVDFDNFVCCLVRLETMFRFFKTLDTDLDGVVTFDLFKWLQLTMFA
T1 sequence (P04632 1-268 partner): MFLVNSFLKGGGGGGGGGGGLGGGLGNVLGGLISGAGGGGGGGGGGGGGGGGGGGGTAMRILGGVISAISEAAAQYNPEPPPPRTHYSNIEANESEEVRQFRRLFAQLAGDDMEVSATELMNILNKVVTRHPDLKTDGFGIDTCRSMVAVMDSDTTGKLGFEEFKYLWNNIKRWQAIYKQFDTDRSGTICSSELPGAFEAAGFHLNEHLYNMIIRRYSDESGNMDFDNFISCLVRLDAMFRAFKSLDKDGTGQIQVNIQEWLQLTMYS
Experimental: (§1) HEPES, heparin, and A23187 were obtained from Calbiochem. Suc-Leu-Tyr-AMC and chromogenic substrates were obtained from Sigma. Calpain I was purified from human erythrocytes according to the method of Kitahara (Kitahara et al., J. Biochem. 95, 1759-1766) omitting the Blue-Sepharose step. Calpain II from rabbit muscle and cathepsin B were purchased from Sigma. Papain was purchased from Calbiochem.
(§2) Peptide α-ketoamides were assayed as reversible enzyme inhibitors. Various concentrations of inhibitors in Me2 SO were added to the assay mixture which contained buffer and substrate. The reaction was started by the addition of the enzyme and the hydrolysis rates were followed spectrophotometrically or fluorimetrically.
(§3) Calpain I from human erythrocytes and calpain II from rabbit were assayed using Suc-Leu-Tyr-AMC Sasaki et al., J. Biol. Chem. 259, 12489-12494 (1984); incorporated herein by reference!, and the AMC (7-amino-4-methylcoumarin) release was followed fluorimetrically (excitation at 380 nm, and emmision at 460 nm). Calpains were assayed in 25 mM Tris pH=8.0, 10 mM CaC12. Fluorescence was followed using a Gilson FL-1A fluorometer or a Perkin-Elmer 203 Fluorescence spectrometer. Cathepsin B was assayed in 20 mM sodium acetate pH=5.2, 0.5 mM dithiothreitol using Bz-Phe-Val-Arg-p-nitroanilide as substrate. Alternately, cathepsin B was assayed with Z-Arg-Arg-AFC Barrett and Kirschke, Methods Enzymol. 80, 535-561 (1981); incorporated herein by reference!, and the AFC (7-amino-4-trifluoromethylcoumarin) release was followed fluorimetrically (excitation at 400 nm and emmision at 505 nm). Papain was assayed in 100 mM KPO4, 1 mM EDTA, 2.5 mM cysteine pH=6.0 using Bz-Arg-AMC or Bz-Arg-NA Kanaoka et al., Chem. Pharm. Bull. 25, 3126-3128 (1977); incorporated herein by reference! as a substrate. The AMC (7-amino-4-methylcoumarin) release was followed fluorimetrically (excitation at 380 nm, and emmision at 460 nm). Enzymatic hydrolysis rates were measured at various substrate and inhibitor concentrations, and KI values were determined by either Lineweaver-Burk plots or Dixon plots.
(§4) A 0.1M Hepes, 0.5M NaCl, pH 7.5 buffer was utilized for human leukocyte elastase (HLE), porcine pancreatic elastase (PPE), chymotrypsin and cathepsin G. A 0.1 Hepes, 0.01 M CaCl2, pH 7.5 buffer was utilized for trypsin, plasmin, and coagulation enzymes. A 50 mM Tris.HCl, 2 mM EDTA, 5 mM cysteine, pH 7.5 was used as a buffer for papain. A 88 mM KH2 PO4, 12 mM Na2 HPO4, 1.33 mM EDTA, 2.7 mM cysteine, pH 6.0 solution was used as a buffer for cathepsin B. A 20 mM Hepes, 10 mM CaCl2, 10 mM mercatoethanol, pH 7.2 buffer was utilized for calpain I and calpain II.

calpain II from rabbit = experiment: Calpain II inhibition, Suc-Leu-Tyr-AMC hydrolysis (KI); details: read-out: KI Cal II
Experimental: as §1, §2, §3, §4

cathepsin B = molecular target: T2, cathepsin B (Homo sapiens, UniProt P07858); experiment: Cathepsin B inhibition (KI); details: Table 1, Z-Leu--AA--CONHR; read-out: KI Cat B
T2 construct: purchased Sigma
Experimental: as §1, §2, §3, §4

[2] = molecular target: T3, human leukocyte elastase (HLE) (Homo sapiens, UniProt P08246); experiment: HLE inhibition, MeO-Suc-Ala-Ala-Pro-Val-NA hydrolysis; details: Table 4, Z-Leu--AA--CONH-R
T3 sequence (P08246 30-267): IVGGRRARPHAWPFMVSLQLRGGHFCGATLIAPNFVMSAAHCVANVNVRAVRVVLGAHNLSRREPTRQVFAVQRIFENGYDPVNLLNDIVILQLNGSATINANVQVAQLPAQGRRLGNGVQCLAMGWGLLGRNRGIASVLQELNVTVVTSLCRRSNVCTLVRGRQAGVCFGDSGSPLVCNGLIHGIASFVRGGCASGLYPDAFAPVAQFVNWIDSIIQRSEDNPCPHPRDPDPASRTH
Experimental: as §2, §4
HLE and PPE were assayed with MeO-Suc-Ala-Ala-Pro-Val-NA and Suc-Ala-Ala-Ala-NA, respectively Nakajima et al., J. Biol. Chem. 254, 4027-4032 (1979); incorporated herein by reference!. Human leukocyte cathepsin G and chymotrypsin Aα were assayed with Suc-Val-Pro-Phe-NA Tanaka et al., Biochemistry 24, 2040-2047 (1985); incorporated herein by reference!. The hydrolysis of peptide 4-nitroanilides was measured at 410 nm ε410 =8800 M^-1 cm^-1; Erlanger et al., Arch. Biochem. Biophys. 95, pp 271-278 (1961); incorporated herein by reference!. Trypsin, thrombin, human plasma kallikrein, porcine pancreatic kallikrein, human factor XIa, and human plasmin were assayed with Z-Arg-SBzl or Z-Gly-Arg-SBu-i McRae et al., Biochemistry 20, 7196-7206 (1981); incorporated herein by reference!. All peptide thioester hydrolysis rates were measured with assay mixtures containing 4,4'-dithiodipyridine ε324 =19800 M^-1 cm^-1; Grasetti & Murray, Arch. Biochem. Biophys. 119, 41-49 (1967); incorporated herein by reference!.

[3] = Table 2, Z-Leu--AA--CONH--CH2 CH(OH)-R

Row | Compound | Ki [1, 3] [nM] | Ki ([1]; Table 1, Z-Leu--AA--CONHR) [nM] | IC50 [2] [nM] | other results
1 | CCC(NC(=O)C(CC(C)C)NC(=O)OCc1ccccc1)C(=O)C(=O)NCCNC(=O)CCCCC1SCC2NC(=O)NC21 (stereo not drawn) [Z-Leu-Abu-CONH-(CH2)2 NH-biotinyl, Z-Leu-Abu-CONH--(CH2)2NH-Biotinyl] | – | 650 | 38000 | –
2 | CC(C)CC(NC(=O)C(c1ccccc1)c1ccccc1)C(=O)NC(Cc1ccccc1)C(=O)C(=O)NCC(O)c1ccccc1 (stereo not drawn) [Ph2 CH-CO-Leu-Phe-CONH-CH2 CH(OH)Ph, Ph2 CHCO-Leu-Phe-CONH--CH2 CH(OH)Ph] | – | – | – | Ki ([1]; Table 3, M1 CO-Leu--AA--CONH-R): 10000 nM; Ki (calpain II from rabbit; Table 3, M1 CO-Leu--AA--CONH-R): 730 nM
3 | CCC(NC(=O)C(CC(C)C)NC(=O)OCc1ccccc1)C(=O)C(=O)NCCCN1CCc2ccccc2C1 (stereo not drawn) [Z-Leu-Abu-CONH--(CH2)3 -2-Tetrahydroisoquinolinyl] | – | 310 | – | Ki (cathepsin B): 8000 nM
4 | CC[C@H](NC(=O)[C@H](CC(C)C)NC(=O)OCc1ccccc1)C(=O)C(=O)NCCOCCO [Z-Leu-Abu-CONH-(CH2)2 O(CH2)2 OH, Z-Leu-Abu-CONH--(CH2)2 O(CH2)2 OH] | – | – | – | Ki (cathepsin B): 2000 nM
5 | CCC(NC(=O)C(CC(C)C)NC(=O)OCc1ccccc1)C(=O)C(=O)NCC(O)c1ccc(OCc2ccccc2)c(OCc2ccccc2)c1 (stereo not drawn) [Z-Leu-Abu-CONH--CH2 CH(OH)C6 H3 (3,4-(OCH2 Ph)2)] | 230 | – | 64000 | –
6 | CCC(NC(=O)C(CC(C)C)NC(=O)OCc1ccccc1)C(=O)C(=O)NCCc1ccccn1 (stereo not drawn) [Z-Leu-Abu-CONH-(CH2)2 -2-pyridyl, Z-Leu-Abu-CONH--(CH2)2 -2-Pyridyl] | – | 410 | – | Ki (calpain II from rabbit; Table 1, Z-Leu--AA--CONHR): 470 nM
7 | CCC(NC(=O)C(CC(C)C)NC(=O)OCc1ccccc1)C(=O)C(=O)NCCc1c[nH]c2ccccc12 (stereo not drawn) [Z-Leu-Abu-CONH-(CH2)2 -3-indolyl, Z-Leu-Abu-CONH--(CH2)2 -3-Indolyl] | – | 300 | 48000 | Ki (calpain II from rabbit; Table 1, Z-Leu--AA--CONHR): 50 nM
8 | CC[C@H](NC(=O)[C@H](CC(C)C)NC(=O)OCc1ccccc1)C(=O)C(=O)NCCc1ccccc1OC [Z-Leu-Abu-CONH-(CH2)2 C6 H4 (2-OCH3), Z-Leu-Abu-CONH--(CH2)2 C6 H4 (2-OCH3)] | – | 130 | – | Ki (cathepsin B): 630 nM
9 | CCC(NC(=O)C(CC(C)C)NC(=O)C(c1ccccc1)c1ccccc1)C(=O)C(=O)NCc1ccccn1 (stereo not drawn) [Ph2 CH-CO-Leu-Abu-CONH-CH2 -2-pyridyl, Ph2 CHCO-Leu-Abu-CONH-2-CH2 -Pyridyl] | – | – | – | Ki (calpain II from rabbit; Table 3, M1 CO-Leu--AA--CONH-R): 90 nM
10 | Z-Leu-Abu-CONH--(CH2)2 C6 H4 (4-OH) [Z-Leu-Abu-CONH-(CH2)2 C6 H4 (4-OH)] | – | 380 | – | Ki (calpain II from rabbit; Table 1, Z-Leu--AA--CONHR): 60 nM
11 | CCC(NC(=O)C(CC(C)C)NC(=O)OCc1ccccc1)C(=O)C(=O)NCc1nc2c(c(=O)n(C)c(=O)n2C)n1C (stereo not drawn) [Z-Leu-Abu-CONH-CH2 -8-caffeine, Z-Leu-Abu-CONH--CH2 -8-Caffeine] | – | 32000 | 156000 | –

Second part, led by results:

Row | Ki [1, 3] [nM] | Ki ([1]; Table 1, Z-Leu--AA--CONHR) [nM] | IC50 [2] [nM] | Compound | other results
12 | 7800 | – | – | CCCC(NC(=O)C(CC(C)C)NC(=O)OCc1ccccc1)C(=O)C(=O)NCC(O)c1ccccc1 (stereo not drawn) [Z-Leu-Nva-CONH-CH2 CH(OH)-Ph, Z-Leu-Nva-CONH--CH2 CH(OH)Ph] | Ki (calpain II from rabbit; [3]): 11000 nM
13 | – | 2400 | – | CC(C)C[C@H](NC(=O)OCc1ccccc1)C(=O)NC(Cc1ccccc1)C(=O)C(=O)NCc1nccc2ccccc12 (stereo partly drawn) [Z-Leu-Phe-CONH-CH2 -1-isoquinolinyl, Z-Leu-Phe-CONH--CH2 -1-Isoquinolinyl] | Ki (cathepsin B): 9600 nM
14 | 240 | – | 32000 | CCC(NC(=O)C(CC(C)C)NC(=O)OCc1ccccc1)C(=O)C(=O)NCC(O)c1ccc(OC)cc1 (stereo not drawn) [Z-Leu-Abu-CONH-CH2 CH(OH)-C6 H4 (4-OCH3), Z-Leu-Abu-CONH--CH2 CH(OH)C6 H4 (4-OCH3)] | –
15 | 50 | – | 44000 | Z-Leu-Abu-CONH--CH2 CH(OH)C6 F5 [Z-Leu-Abu-CONH-CH2 CH(OH)-C6 F5] | inhibition of calpain I, in words [1]: best inhibitor for calpain I
16 | 70 | – | 30000 | CCC(NC(=O)C(CC(C)C)NC(=O)OCc1ccccc1)C(=O)C(=O)NCC(O)c1cccc(Oc2cccc(C(F)(F)F)c2)c1 (stereo not drawn) [Z-Leu-Abu-CONH--CH2 CH(OH)C6 H4 -3-OC6 H4 (3-CF3)] | –
17 | – | 19 | – | CCCC(NC(=O)C(CC(C)C)NC(=O)OCc1ccccc1)C(=O)C(=O)NCc1ccccn1 (stereo not drawn) [Z-Leu-Nva-CONH-CH2 -2-pyridyl, Z-Leu-Nva-CONH--CH2 -2-Pyridyl] | inhibition of calpain I, in words [1]: best inhibitor of calpain I; Ki (calpain II from rabbit; Table 1, Z-Leu--AA--CONHR): 120 nM
18 | 900 | – | 45000 | CCC(NC(=O)C(CC(C)C)NC(=O)OCc1ccccc1)C(=O)C(=O)NCC(O)c1cccc(Oc2ccccc2)c1 (stereo not drawn) [Z-Leu-Abu-CONH-CH2 CH(OH)-C6 H4 (3-OPh), Z-Leu-Abu-CONH--CH2 CH(OH)C6 H4 (3-OPh)] | –
19 | 100 | – | 28000 | CCC(NC(=O)C(CC(C)C)NC(=O)OCc1ccccc1)C(=O)C(=O)NCC(O)c1ccc(Oc2ccccc2)cc1 (stereo not drawn) [Z-Leu-Abu-CONH-CH2 CH(OH)-C6 H4 (4-OPh), Z-Leu-Abu-CONH--CH2 CH(OH)C6 H4 (4-OPh)] | –
